The source of these data is patent US9249448B2 (priority 2010, dated 2016).

The target of the test is protein of SEQ ID NO 1 (yxel gene product) (Bacillus subtilis, UniProt P54948, G69A/I70F/P219S/T91M). To be noted: sodium acetate 100 mM final concentration; substrate 0.2 mg/ml, 37°, 15 min, PBS buffer; compared with background activity of plasmid-free E. coli strain.
Chain of protein of SEQ ID NO 1 (yxel gene product) (P54948 whole entry G69A/I70F/T91M/P219S): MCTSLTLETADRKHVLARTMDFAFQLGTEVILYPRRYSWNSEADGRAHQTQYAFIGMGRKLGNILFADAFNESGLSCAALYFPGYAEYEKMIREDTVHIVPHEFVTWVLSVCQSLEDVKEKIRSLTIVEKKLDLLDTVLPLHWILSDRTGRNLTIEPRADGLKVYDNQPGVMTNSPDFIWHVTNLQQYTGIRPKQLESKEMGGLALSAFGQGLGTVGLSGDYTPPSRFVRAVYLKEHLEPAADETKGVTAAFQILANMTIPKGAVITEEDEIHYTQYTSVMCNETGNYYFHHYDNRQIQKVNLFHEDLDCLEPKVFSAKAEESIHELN

From the text: Cells obtained as in example 2 were harvested by centrifugation and washed twice with PBS buffer to remove residual medium components. The final cell pellet was resuspended in PBS buffer (per liter water: 8 g NaCl, 0.2 g KCl, 1.44 g Na2HPO4, 0.24 g K H2PO4, pH 7.4) to reach a final OD600 of 30. This cell suspension of strains (either without plasmid or carrying the expression vectors described in Example 1) was used for the activity tests. The washed cell suspensions were contacted in PBS buffer with N-alpha-lauryl-glutamin (0.2 mg/ml final concentration, “LG” in FIG. 35), at 37° (final volume 0.25 ml) for 15 min. The actual test was performed as described in example 7 of WO 02/092024 A2, with GC as the test method.

As to `CC(=O)[O-].[Na+]` [sodium acetate], the “enzyme activity (inhibition of N-alpha-lauryl-glutamin cleavage)” value is recorded as “inhibited to the level of the background activity”.
